In general, IC50 refers to the concentration that gives 50% inhibition. A higher IC50 goes with weaker potency.

These results are taken from patent publication US20210363152A1, “AMINOAZINE AMIDES” (Hoffmann-La Roche Inc., priority 2018, published 2021).

For this experiment, the target named is T1, Autotaxin enzyme (ATX) (Homo sapiens, UniProt Q13822).
T1 construct: purchased Echelon Biosciences, Inc. E-4000
The experiment is described as follows: In vitro ATX assay (enzymatic ATX inhibition, LPC 14:0 substrate, choline oxidase/HRP absorbance readout). Type of experiment: biochemical. The settings on record: 0.3 mM LPC 14:0, 37° C., 4 hours, absorbance 555 nm. The procedure:
• Assay buffer: 100 mM Tris-HCl, pH 9.0, 500 mM NaCl, 5 mM MgCl2, 30 μM CoCl2, 0.05% Triton X-100 • Assay buffer II: 4.5 mM 4-AAP, 2.7 mM TOOS, 21.2 U/mL HRP, 3 U/mL CO, In 50 mM Tris-HCl pH 8.0, 4.5 mM MgCl2
A compound preparation plate (Nunc 249944) was prepared by adding 30 mM stock solution (in DMSO) of test compound and performing a serial full-log dilution down to 30 nM. Two μL/well were transferred from the first compound prep plate to a compound dilution plate (Corning, 3641) and 198 μL assay buffer I was added for a […].
A 10 ng/mL solution of ATX was prepared by diluting in assay buffer I, and 80 μL/well were added to the assay plate (Corning, 3641); negative control wells contained 80 μL/well assay buffer I only (no ATX). Ten μL/well from the compound dilution plate (containing serially diluted test compound or DMSO) were added to the assay plate, which was then incubated at 37° C. for 15 minutes. A solution of LPC 14:0 was prepared in assay buffer I at 3 mM and 10 μl/well were added to the assay plate, for a final concentration of 0.3 mM LPC, and returned to 37° C. incubator for 4 hours. After 4 hour incubation, 100 μL/well of assay buffer II was added to all wells of the assay plate. The plate was incubated at RT for 15 minutes, prior to reading on FlexStation in absorbance mode, 555 nm. Results in the enzymatic ATX inhibition assay are provided for compounds of formula (I). An IC50 value of “A” is less than 100 nM, “B” is equal to or greater than 100 nM but less than 1 μM, “C” is equal to or greater than 1 μM.
`CC(C)Oc1ccc2c(c1)CC(Nc1ncc(C(=O)N3CCC34COC4)cn1)C2` (stereo not shown) [Example 161, (2-((5-Isopropoxy-2,3-dihydro-1H-inden-2-yl)amino)pyrimidin-5-yl)(6-oxa-1-azaspiro[3.3]heptan-1-yl)methanone] came in with an IC50 of 100 to 1000 nM. `CC(C)(O)[C@H]1CCN1C(=O)c1cnc(N[C@@H]2Cc3ccc(Cl)cc3C2)nc1` [Example 136, (2-(((R)-5-Chloro-2,3-dihydro-1H-inden-2-yl)amino)pyrimidin-5-yl) ((R)-2-(2-hydroxypropan-2-yl)azetidin-1-yl)methanone]: the IC50 was < 100 nM. In the case of `CC(C)c1cc(CNc2ncc(C(=O)N3CCC34CN(S(C)(=O)=O)C4)cn2)cc(OC(F)(F)F)c1` [Example 151, (2-((3-Isopropyl-5-(trifluoromethoxy)benzyl)amino)pyrimidin-5-yl) (6-(methylsulfonyl)-1,6-diazaspiro[3.3]heptan-1-yl)methanone], the IC50 was < 100 nM. Turning to `CC1CCN1C(=O)c1cnc(NCc2cc(Cl)cc(Cl)c2)nc1` (stereo not shown) [Example 10], the IC50 was in the range of 100 to 1000 nM.

For `CCOc1cc(CNc2ncc(C(=O)N3CCC3C(C)(C)O)cn2)cc(OC(C)C)c1` (stereo not shown) [Example 160, (2-((3-Ethoxy-5-isopropoxybenzyl)amino)pyrimidin-5-yl) (2-(2-hydroxypropan-2-yl)azetidin-1-yl)methanone], the IC50 was < 100 nM.

Turning to `CC1(C)CCN1C(=O)c1cnc(NCc2cc(OC(F)(F)F)cc(C3CC3)c2)nc1` [Example 89, (2-((3-cyclopropyl-5-(trifluoromethoxy)benzyl)ami-no)pyrimidin-5-yl)(2,2-dimethylazetidin-1-yl)methanone], the IC50 is < 100 nM.

Regarding `O=C(c1cnc(NCc2cccc(Cl)c2Cl)nc1)N1CCC12COC2` [Example 55], the 50% inhibitory concentration (IC50) lay in the range of 100 to 1000 nM. As for `CC1CCN1C(=O)c1cnc(NC2Cc3ccc(Cl)cc3C2)nc1` (stereo not shown) [Example 44], the half-inhibitory concentration (IC50) was < 100 nM. Next, `CC1CC(C)N1C(=O)c1cnc(NCc2cc(OC(F)(F)F)cc(C3CC3)c2)nc1` (single isomer, unassigned) [Example 120, (2-((3-Cyclopropyl-5-(trifluoromethoxy)-benzyl)amino)pyrimidin-5-yl)(2,4-dimethylazetidin-1-yl)methanone]: < 100 nM; `O=C(c1cnc(NCc2cc(Cl)ccc2Cl)nc1)N1CCC12COC2` [Example 54]: 100 to 1000 nM; `O=C(c1cnc(NCc2cc(OC(F)(F)F)cc(C3CCC3)c2)nc1)N1CCC12COC2` [Example 23]: < 100 nM.

Regarding `O=C(c1cnc(NC2Cc3ccc(Cl)cc3C2)nc1)N1CCCC12COC2` (stereo not shown) [Example 46], the IC50 is < 100 nM. Turning to `O=C(c1cnc(NCc2cccc(OC(F)(F)F)c2)nc1)N1CC2(COC2)C1` [Example 3], the half-maximal inhibitory concentration (IC50) was ≥ 1000 nM. For the molecule `COC[C@@H]1CCN1C(=O)c1cnc(NC2Cc3ccc(Cl)cc3C2)nc1` (stereo partly shown) [Example 57], the IC50 is < 100 nM.

With `O=C(c1cnc(N[C@@H]2Cc3ccc(Cl)cc3C2)nc1)N1CCC12CCOC2` (stereo partly drawn) [Example 132, (2-(((R)-5-Chloro-2,3-dihydro-1H-inden-2-yl)amino)pyrimidin-5-yl)(6-oxa-1-azaspiro[3.4]octan-1-yl)methanone], the IC50 is < 100 nM. The figure for `CS(=O)(=O)c1ccc2c(c1)CC(Nc1ncc(C(=O)N3CCC34COC4)cn1)C2` (stereo not shown) [Example 138, (2-((5-(Methylsulfonyl)-2,3-dihydro-1H-inden-2-yl)amino)pyrimidin-5-yl)(6-oxa-1-azaspiro[3.3]heptan-1-yl)methanone] is ≥ 1000 nM; for `O=C(c1cnc(NCc2cc(OC(F)(F)F)cc(C3CC3)c2)nc1)N1CCC12CN(C1CC1)C2` [Example 146, (2-((3-Cyclopropyl-5-(trifluoromethoxy)benzyl)amino)pyrimidin-5-yl) (6-cyclopropyl-1,6-diazaspiro[3.3]heptan-1-yl)methanone] it is < 100 nM.

For `CC(C)Oc1cc(CNc2ncc(C(=O)N3CCC34COC4)cn2)cc(N2CCC2)c1` [Example 63], the IC50 was in the range of 100 to 1000 nM. Take `CC(C)(C)OC(=O)N1CC2(CCN2C(=O)c2cnc(NCc3cc(OC(F)(F)F)cc(C4CC4)c3)nc2)C1` [Example 92, tert-butyl 1-(2-((3-cyclopropyl-5-(trifluoro-methoxy)benzyl)amino)py-rimidine-5-carbonyl)-1,6-diazaspiro[3.3]heptane-6-carboxylate]: the IC50 was < 100 nM.

With `CC(C)c1cc(CNc2ncc(C(=O)N3CCC34COC4)cn2)cc(OC(F)(F)F)c1` [Example 1, (2-((3-Isopropyl-5-(trifluoromethoxy)benzyl)amino)pyrimidin-5-yl) (6-oxa-1-azaspiro[3.3]heptan-1-yl)methanone], the IC50 is < 100 nM.

`CC1CCN1C(=O)c1cnc(NCc2cc(C(F)(F)F)cc(C(F)(F)F)c2)nc1` (stereo not shown) [Example 9]: the IC50 fell in the range of 100 to 1000 nM.

In the case of `O=C(c1cnc(NCc2cc(OC(F)(F)F)cc(C3CC3)c2)nc1)N1CCC12CN(C1COC1)C2` [Example 145, (2-((3-Cyclopropyl-5-(trifluoromethoxy)benzyl)amino)pyrimidin-5-yl) (6-(oxetan-3-yl)-1,6-diazaspiro[3.3]heptan-1-yl)methanone], the concentration for half-maximal inhibition (IC50) is < 100 nM.

On to `CN1CCC2(CC1)CCN2C(=O)c1cnc(NC2Cc3ccc(Cl)cc3C2)nc1` (stereo not shown) [Example 40], for which the IC50 is < 100 nM.

The molecule `O=C(c1cnc(NC2Cc3ccccc3C2)nc1)N1CCC12COC2` [Example 7] showed an IC50 of 100 to 1000 nM. Next, `CC(C)Oc1cc(CNc2ncc(C(=O)N3CCC3C(C)(C)O)cn2)cc(OC(C)C)c1` (stereo not shown) [Example 58]: < 100 nM; `CN1CCC2(CC1)CCN2C(=O)c1cnc(NCc2cc(OC(F)(F)F)cc(C3CC3)c2)nc1` [Example 112, (2-((3-cyclopropyl-5-(trifluoromethoxy)benzyl)ami-no)pyrimidin-5-yl)(7-methyl-1,7-diazaspiro[3.5]nonan-1-yl)methanone]: < 100 nM. `N#Cc1cc(CNc2ncc(C(=O)N3CCC34COC4)cn2)cc(OC(F)(F)F)c1` [Example 139, 3-(((5-(6-Oxa-1-azaspiro[3.3]heptane-1-carbonyl)pyrimidin-2-yl)amino)methyl)-5-(trifluoromethoxy)benzonitrile] showed an IC50 of 100 to 1000 nM.

Regarding `O=C(c1cnc(NCc2cc(OC(F)(F)F)cc(C3CC3)c2)nc1)N1CCC1C(F)F` (stereo not shown) [Example 113, (2-((3-cyclopropyl-5-(trifluoromethoxy)benzyl)ami-no)pyrimidin-5-yl)(2-(difluoromethyl)azetidin-1-yl)methanone], the IC50 is < 100 nM. For `CCN1CC2(CCN2C(=O)c2cnc(NCc3cc(OC(F)(F)F)cc(C4CC4)c3)nc2)C1` [Example 143, (2-((3-Cyclopropyl-5-(trifluoromethoxy)benzyl)amino)pyrimidin-5-yl)(6-ethyl-1,6-diazaspiro[3.3]heptan-1-yl)methanone], the IC50 was < 100 nM. Molecule `O=C(c1cnc(N[C@H]2Cc3ccc(Cl)cc3C2)nc1)N1CCC12COC2` [Example 130, (S)-(2-((5-Chloro-2,3-dihydro-1H-inden-2-yl)amino)pyrimidin-5-yl)(6-oxa-1-azaspiro[3.3]heptan-1-yl)methanone] gave an IC50 of 100 to 1000 nM. Molecule `O=C(c1cnc(N[C@H]2Cc3ccc(Br)cc3C2)nc1)N1CCC12COC2` [Example 61] came in with an IC50 of 100 to 1000 nM. Next, `O=C(c1cnc(NCc2cc(OC(F)(F)F)cc(C3CC3)c2)nc1)N1CCC12CCOC2` (single isomer, unassigned) [Example 116, (2-((3-Cyclopropyl-5-(trifluoromethoxy)-benzyl)amino)pyrimidin-5-yl)(6-oxa-1-azaspiro[3.4]octan-1-yl) methanone]: < 100 nM; `CN1CC2(CCCN2C(=O)c2cnc(NCc3cc(OC(F)(F)F)cc(C4CC4)c3)nc2)C1` [Example 157, (2-((3-Cyclopropyl-5-(trifluoromethoxy)benzyl)amino)pyrimidin-5-yl)(2-methyl-2,5-diazaspiro[3.4]octan-5-yl)methanone]: < 100 nM.

Regarding `O=C(c1cnc(N[C@@H]2Cc3ccc(Cl)cc3C2)nc1)N1CCC12COC2` [Example 129, (R)-(2-((5-Chloro-2,3-dihydro-1H-inden-2-yl)amino)pyrimidin-5-yl)(6-oxa-1-azaspiro[3.3]heptan-1-yl)methanone], the IC50 is < 100 nM. Turning to `O=C(c1cnc(NCc2cc(Cl)cc(Cl)c2)nc1)N1CCC12COC2` [Example 50], the IC50 is 100 to 1000 nM. Take `O=C(c1cnc(NC2Cc3ccc(Cl)cc3C2)nc1)N1CCC12CS(=O)(=O)C2` (stereo not shown) [Example 49]: the half-maximal inhibitory concentration (IC50) was < 100 nM. Regarding `CS(=O)(=O)N1CC2(CCN2C(=O)c2cnc(NC3Cc4ccc(Cl)cc4C3)nc2)C1` (stereo not shown) [Example 152, (2-((5-Chloro-2,3-dihydro-1H-inden-2-yl)amino)pyrimidin-5-yl)(6-(methylsulfonyl)-1,6-diazaspiro[3.3]heptan-1-yl)methanone], the IC50 was < 100 nM.
